One may read the Emax as the size of the effect at its maximum, as opposed to the concentration needed. The ED50 is the dose at which the effect has come halfway, by size or by number of responders. For orientation: melting point means the temperature of the solid-liquid transition.

This is an account of results in patent US11053248B2, “[1,2,4]triazolo[1,5-a]pyrimidine compounds as PDE2 inhibitors” (Janssen Pharmaceutica NV, priority 2016, dated 2021).

For one data set, the target named is T1, hPDE2A (Homo sapiens, UniProt O00408).
T1 construct: made in house; host or cells: Sf9 insect cells (baculovirus)
T1 sequence (O00408 whole entry): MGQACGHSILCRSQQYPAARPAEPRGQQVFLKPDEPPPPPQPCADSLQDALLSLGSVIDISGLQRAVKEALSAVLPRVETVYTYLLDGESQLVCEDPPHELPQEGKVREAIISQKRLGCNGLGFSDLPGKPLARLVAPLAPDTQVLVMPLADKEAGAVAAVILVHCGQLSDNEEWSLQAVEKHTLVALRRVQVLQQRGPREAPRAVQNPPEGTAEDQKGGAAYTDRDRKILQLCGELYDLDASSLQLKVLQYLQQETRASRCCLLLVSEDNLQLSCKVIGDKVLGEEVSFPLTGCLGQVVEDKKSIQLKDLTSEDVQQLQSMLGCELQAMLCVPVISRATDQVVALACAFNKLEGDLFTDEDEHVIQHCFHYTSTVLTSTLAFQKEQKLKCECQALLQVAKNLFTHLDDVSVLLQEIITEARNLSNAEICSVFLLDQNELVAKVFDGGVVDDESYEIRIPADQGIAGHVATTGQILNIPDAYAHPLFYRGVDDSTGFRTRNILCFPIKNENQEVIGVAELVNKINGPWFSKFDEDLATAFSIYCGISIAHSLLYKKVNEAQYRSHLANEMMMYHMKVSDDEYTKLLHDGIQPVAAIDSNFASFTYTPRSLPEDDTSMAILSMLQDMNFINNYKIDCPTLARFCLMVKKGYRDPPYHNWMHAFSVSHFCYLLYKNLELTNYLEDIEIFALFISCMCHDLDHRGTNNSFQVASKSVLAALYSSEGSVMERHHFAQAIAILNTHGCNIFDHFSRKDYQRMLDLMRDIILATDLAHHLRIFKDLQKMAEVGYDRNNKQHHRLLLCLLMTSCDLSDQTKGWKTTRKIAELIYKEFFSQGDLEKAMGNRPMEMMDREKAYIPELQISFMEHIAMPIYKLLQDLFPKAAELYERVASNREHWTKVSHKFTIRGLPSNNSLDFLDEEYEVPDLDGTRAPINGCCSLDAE
Put plainly: In vitro assay PDE2A (SPA, 3H-cGMP). The class given is biochemical. The gist of the method:
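Sf9-expressed, Ni-sepharose-purified enzyme in 50 mM Tris pH 7.8, 8.3 mM MgCl2, 1.7 mM EGTA with 10 μM cGMP plus 0.01 μCi 3H-cGMP (final), 1% DMSO. Reaction 45 min at room temperature; SPA bead radioactivity counted as cpm, blanks without enzyme, controls with DMSO instead of compound.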

For the next data set, the system named is hPDE3B. Put plainly: In vitro assay PDE3 (SPA, 3H-cAMP). The class given is biochemical, human.
The target in another data set is hPDE10A2 (Homo sapiens, UniProt Q9Y233). Nature of the data set: biochemical.
Chain of hPDE10A2 (Q9Y233 267-1055): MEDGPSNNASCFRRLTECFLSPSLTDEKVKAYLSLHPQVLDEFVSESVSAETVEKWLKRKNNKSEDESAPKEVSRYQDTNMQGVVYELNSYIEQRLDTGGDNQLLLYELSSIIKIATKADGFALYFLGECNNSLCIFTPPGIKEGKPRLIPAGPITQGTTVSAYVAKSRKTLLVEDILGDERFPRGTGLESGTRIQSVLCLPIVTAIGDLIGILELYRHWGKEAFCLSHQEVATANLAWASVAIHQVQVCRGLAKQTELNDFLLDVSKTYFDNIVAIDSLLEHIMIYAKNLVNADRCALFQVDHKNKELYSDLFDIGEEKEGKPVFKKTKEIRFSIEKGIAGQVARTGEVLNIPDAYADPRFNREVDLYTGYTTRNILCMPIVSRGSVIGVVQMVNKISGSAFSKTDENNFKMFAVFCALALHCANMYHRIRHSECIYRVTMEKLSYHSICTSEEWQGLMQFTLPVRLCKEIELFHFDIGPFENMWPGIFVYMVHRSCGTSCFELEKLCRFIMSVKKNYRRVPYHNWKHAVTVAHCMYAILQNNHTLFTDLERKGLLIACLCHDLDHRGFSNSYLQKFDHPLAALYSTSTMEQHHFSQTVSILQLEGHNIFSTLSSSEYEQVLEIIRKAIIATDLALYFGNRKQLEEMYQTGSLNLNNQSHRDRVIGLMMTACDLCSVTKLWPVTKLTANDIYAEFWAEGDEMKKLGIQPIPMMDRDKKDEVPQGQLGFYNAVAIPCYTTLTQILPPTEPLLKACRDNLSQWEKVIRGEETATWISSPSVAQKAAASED
The next data set has as its target T2, PDE2A (Rattus norvegicus, UniProt Q01062).
T2 construct: from tissue; host or cells: rat brain striatal sections (ex vivo)
T2 sequence (Q01062 1-928): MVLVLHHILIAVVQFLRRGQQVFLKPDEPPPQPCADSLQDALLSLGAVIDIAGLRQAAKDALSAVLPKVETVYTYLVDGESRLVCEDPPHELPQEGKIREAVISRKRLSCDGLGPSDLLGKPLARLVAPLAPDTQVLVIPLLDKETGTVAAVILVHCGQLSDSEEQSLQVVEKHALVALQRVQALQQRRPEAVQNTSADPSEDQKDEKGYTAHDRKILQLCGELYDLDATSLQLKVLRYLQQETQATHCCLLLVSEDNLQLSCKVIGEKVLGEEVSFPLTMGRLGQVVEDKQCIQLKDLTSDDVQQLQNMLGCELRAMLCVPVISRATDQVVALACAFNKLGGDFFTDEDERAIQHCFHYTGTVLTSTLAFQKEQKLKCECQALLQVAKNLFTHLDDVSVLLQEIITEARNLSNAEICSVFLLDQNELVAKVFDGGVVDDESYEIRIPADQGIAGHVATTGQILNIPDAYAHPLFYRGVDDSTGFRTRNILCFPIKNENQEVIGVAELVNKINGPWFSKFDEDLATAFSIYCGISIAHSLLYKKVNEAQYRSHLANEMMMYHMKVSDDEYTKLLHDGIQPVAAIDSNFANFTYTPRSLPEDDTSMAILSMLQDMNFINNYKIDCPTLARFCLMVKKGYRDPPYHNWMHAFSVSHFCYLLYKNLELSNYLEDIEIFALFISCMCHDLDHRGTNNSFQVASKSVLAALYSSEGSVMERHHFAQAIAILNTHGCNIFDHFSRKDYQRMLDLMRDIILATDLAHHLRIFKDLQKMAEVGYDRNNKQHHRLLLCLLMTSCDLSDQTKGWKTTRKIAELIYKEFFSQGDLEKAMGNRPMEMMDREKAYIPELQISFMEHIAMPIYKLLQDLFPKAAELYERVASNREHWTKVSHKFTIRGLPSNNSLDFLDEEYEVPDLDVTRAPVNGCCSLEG
Nature of the data set: PDE2 occupancy by ex-vivo autoradiography with [3H]B-17a. The class given is in vivo. Conditions: rat. The protocol:
PDE2 Occupancy by Test Compounds Methods
Brains were immediately removed from the skull and rapidly frozen in dry-ice cooled 2-methylbutane (−40° C.).
After thawing, sections were dried under a cold stream of air and incubated for one minute with 30 nM [^3H]B-17a in Tris-HCl (50 mM, pH7.4) containing 0.3% BSA. Brain sections from drug-treated and vehicle-treated animals were incubated in parallel. […] After incubation, the excess of [^3H]B-17a was washed off in ice-cold buffer 2 times 10 minutes, followed by a quick dip in distilled water. The sections were then dried under a stream of cold air.
Brain sections were loaded in a β-imager (Biospace, Paris) for 4 h and radioactivity emerging from delineated brain area was quantified using the Beta vision program (Biospace, Paris). Specific binding was determined as the difference between total binding in the striatum and non-specific binding in the cerebellum. Percentage receptor occupancy of the drug administered to the animal corresponded to 100% minus the percentage receptor labeled in the treated animal. For the determination of ED50-values, the percentage of receptor occupancy was plotted against dose and the sigmoidal log dose-effect curve of best fit was calculated by non-linear regression analysis, using the GraphPad Prism program.

The next data set is described as follows: Solubility (as reported). In kind it is physicochemical. Particulars: in words.

As for `C[C@@H]1CCN(c2nccc3ccc(Br)cc23)C[C@H]1c1cc(C(F)F)nc2ncnn12` [Compound 1], the melting point came to 129.91 °C. For the same compound, at hPDE2A (10 μM cGMP substrate, read-out: hPDE2A pIC50 (converted)), the IC50 was 2.24 nM. For the same compound, at hPDE2A (read-out: hPDE2A Emax), the Emax was found to be 96%. In the data set with hPDE3B, the “hPDE3B Emax” value was determined as 73. Besides, the “hPDE3B pIC50” value with hPDE3B (0.4 μM cAMP substrate) was determined as 5.25. The IC50 on hPDE10A2 (60 nM cAMP substrate, read-out: hPDE10A2 pIC50 (converted)) was 550 nM. The maximal effect (Emax) on hPDE10A2 (read-out: hPDE10A2 Emax) worked out at 98%. The receptor occupancy at 10 mg/kg on PDE2A (po, read-out: PDE2 occupancy at 10 mg/kg, route PO (oral), 10 mg/kg, male Wistar rats, striatum, percentage occupancy) turned out to be 94%. Moreover, the ED50 at PDE2A (sc, read-out: PDE occupancy ED50, route SC (subcutaneous), male Wistar rats, dose producing 50% occupancy) was 6.7 mg/kg. Moreover, in “Solubility (as reported)”, the solubility result is “poor”.
